The text below walks through data of patent US8450308B2 (Vitae Pharmaceuticals, Inc., priority 2008, dated 2013).

Read-outs that look alike come from different tables or passages of the source.

As usually defined, the IC50 is the concentration that inhibits the measured activity by half.

For the test, the target named is T1, truncated human beta-secretase (residues 1-458, His6-tagged at the C-terminus) (Homo sapiens, UniProt P56817).
T1 construct: truncated human beta-secretase (residues 1-458, His6-tagged at the C-terminus); His6 (C); made in house; host or cells: insect cells D. melanogaster S2 (baculovirus expression system (so in the source))
T1 sequence (P56817 22-458): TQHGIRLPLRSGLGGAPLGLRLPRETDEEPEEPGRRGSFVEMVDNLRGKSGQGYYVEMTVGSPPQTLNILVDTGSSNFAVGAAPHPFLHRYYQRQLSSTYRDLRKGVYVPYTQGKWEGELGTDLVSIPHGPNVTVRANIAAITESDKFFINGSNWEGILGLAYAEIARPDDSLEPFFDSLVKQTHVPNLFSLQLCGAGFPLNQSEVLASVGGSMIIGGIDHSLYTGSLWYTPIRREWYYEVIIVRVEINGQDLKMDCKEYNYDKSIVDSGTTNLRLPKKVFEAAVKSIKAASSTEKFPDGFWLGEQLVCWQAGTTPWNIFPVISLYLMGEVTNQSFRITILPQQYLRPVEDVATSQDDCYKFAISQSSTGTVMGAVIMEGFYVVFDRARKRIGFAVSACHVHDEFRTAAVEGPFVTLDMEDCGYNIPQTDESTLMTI
Put plainly: BACE fluorescence quench assay. The format is biochemical. How it is done:
The assay was performed at room temperature in 96-well white opaque Optiplates aque Optiplates (PerkinElmer, Waltham, Mass.) in a total volume of 200 μl of the incubation mixture containing 50 mM sodium acetate buffer, pH 4.5, 0.4 μM FRET substrate, 2.4 nM enzyme, 5% DMSO, and 0.05% Brij-35. The tested compounds were serially diluted in DMSO and pre-incubated with the substrate. The reaction was started by addition of enzyme, and the progress of the reaction was followed by measuring fluorescence with an excitation wavelength of 480 nm and an emission wavelength of 520 nm. Ten measurements were taken every 5-10 min, and the intensity of fluorescence was regressed against time in order to derive velocities of reaction in all 96 wells. […] IC50 values were calculated by fitting percent inhibition vs. inhibitor concentration into a four-parametric logistic model using XLFit software (IDBS, Guildford, UK).

Where [1] appears, read: in vitro enzyme activity, BACE fluorescence assay, pH 4.5, read-out: IC50.

With `CN1C(=O)C2(CC(C3CCCCC3)Oc3ccc(-c4cccc(C#N)c4)cc32)N=C1N` (stereo not drawn) [Compound 3, 3-(2′-amino-2-cyclohexy-1′-methyl-5′-oxo-1′,5′-dihydrospiro[chroman-4,4′-imidazole]-6-yl)benzonitrile], the IC50 under setting [1] lay within 0.1 to 0.5 µM. The molecule `CN1C(=O)C2(CC(c3ccccc3)Oc3ccc(-c4ccc(F)c(C#N)c4)cc32)N=C1N` (stereo not drawn) [Compound 4, 5-(2′-amino-1′-methyl-5′-oxo-2-phenyl-1′,5′-dihydrospiro[chroman-4,4′-imidazole]-6-yl)-2-fluorobenzonitrile] returned an IC50 of 0.1 to 0.5 µM.

Molecule `CN1C(=O)C2(CC(c3ccccc3)Oc3ccc(-c4cncc(C#N)c4)cc32)N=C1N` (stereo not drawn) [Compound 5, 5-(2′-amino-1′-methyl-5′-oxo-2-phenyl-1′,5′-dihydrospiro[chroman-4,4′-imidazole]-6-yl)nicotinonitrile] registered an IC50 of 0.1 to 0.5 µM.

`CN1C(=O)C2(CC(c3ccc(Cl)cc3)Oc3ccc(-c4cccc(C#N)c4)cc32)N=C1N` (stereo not drawn) [Compound 6]: the IC50 under setting [1] fell in the range of 0.1 to 0.5 µM. Consider `CN1C(=O)C2(CC(c3cccc(F)c3)Oc3ccc(-c4cccc(C#N)c4)cc32)N=C1N` (stereo not drawn) [Compound 7], for which, under setting [1], the IC50 was 0.1 to 0.5 µM. On to `CN1C(=O)C2(CC(c3ccccc3F)Oc3ccc(-c4cccc(C#N)c4)cc32)N=C1N` (stereo not drawn) [Compound 9, 3-(2′-amino-2-(2-fluorophenyl)-1′-methyl-5′-oxo-1′,5′-dihydrospiro[chroman-4,4′-imidazole]-6-yl)benzonitrile], for which, under setting [1], the IC50 was in the range of 0.1 to 0.5 µM.

Regarding `N#Cc1cccc(-c2ccc3c(c2)C2(CC(c4ccccc4)O3)N=C(N)N(CCC3CC3)C2=O)c1` (stereo not drawn) [Compound 10], the IC50 under setting [1] lay within 0.1 to 0.5 µM.

Consider `CN1C(=O)C2(CC(c3ccccc3)Oc3ccc(-c4cccc(C5CC5)c4)cc32)N=C1N` (stereo not drawn) [Compound 11, 2′-amino-6-(3-cyclopropylphenyl)-1′-methyl-2-phenylspiro[chroman-4,4′-imidazol]-5′(1′H)-one], for which the IC50 under setting [1] lay in the range of 0.1 to 0.5 µM. Consider `CCN1C(=O)C2(CC(c3ccccc3)Oc3ccc(-c4cccc(C#N)c4)cc32)N=C1N` (stereo not drawn) [Compound 12, 3-(2′-amino-1′-ethyl-5′-oxo-2-phenyl-1′,5′-dihydrospiro[chroman-4,4′-imidazole]-6-yl)benzonitrile], for which, under setting [1], the IC50 lay in the range of 0.1 to 0.5 µM. `COc1cccc(-c2ccc3c(c2)C2(CC(c4ccccc4)O3)N=C(N)N(C)C2=O)c1` (stereo not drawn) [Compound 13, 2′-amino-6-(3-methoxyphenyl)-1′-methyl-2-phenylspiro[chroman-4,4′-imidazol]-5′(1′H)-one] returned an IC50 of 0.1 to 0.5 µM. For the molecule `CN1C(=O)C2(CC(c3cccc(F)c3F)Oc3ccc(-c4cccc(C#N)c4)cc32)N=C1N` (stereo not drawn) [Compound 14, 3-(2′-amino-2-(2,3-difluorophenyl)-1′-methyl-5′-oxo-1′,5′-dihydrospiro[chroman-4,4′-imidazole]-6-yl)benzonitrile], the IC50 under setting [1] lay in the range of 0.1 to 0.5 µM. `CN1C(=O)C2(CC(c3ccccc3)Oc3ccc(-c4cccnc4)cc32)N=C1N` (stereo not drawn) [Compound 15, 2′-amino-1′-methyl-2-phenyl-6-(pyridin-3-yl)spiro[chroman-4,4′-imidazol]-5′(1′H)-one]: the IC50 was 0.5 to 1 µM. For `CN1C(=O)C2(CC(c3ccc(C(F)(F)F)cc3)Oc3ccc(-c4cccc(C#N)c4)cc32)N=C1N` (stereo not drawn) [Compound 16], the IC50 under setting [1] is 0.5 to 1 µM. As to `CN1C(=O)C2(CC(c3ccccc3)Oc3ccc(-c4cc(N)cc(C#N)c4)cc32)N=C1N` (stereo not drawn) [Compound 17, 3-amino-5-(2′-amino-1′-methyl-5′-oxo-2-phenyl-1′,5′-dihydrospiro[chroman-4,4′-imidazole]-6-yl)benzonitrile], the IC50 under setting [1] was 0.5 to 1 µM. Consider `N#Cc1cccc(-c2ccc3c(c2)C2(CC(c4ccccc4)O3)N=C(N)N(CC3CCCCC3)C2=O)c1` (stereo not drawn) [Compound 18, 3-(2′-amino-1′-(cyclohexylmethyl)-5′-oxo-2-phenyl-1′,5′-dihydrospiro[chroman-4,4′-imidazole]-6-yl)benzonitrile], for which the IC50 under setting [1] was in the range of 0.5 to 1 µM.
